Test system: Ctenocephalides felis, Diabrotica undecimpunctata, Nephotettix cincticeps, Rhipicephalus sanguineus
Assay: Parasiticidal and pesticidal tests, Methods A to E taken together (active in one or more of the tests, test not specified)
Assay type: in vivo
Conditions: active = at least 90% control (A, 5 ppm or less), 90% (B, 10 ppm), 98% mortality (C, 100 ppm), 70% (D, 1000 ppm) or 70% (E, 100 ppm); test not given per compound
Protocol: The following representative test procedures, using compounds of the invention, were conducted to determine the parasiticidal and pesticidal activity of compounds of the invention.
Method A: Screening Method to Test Systemicity of Compounds Against Ctenocephalides Felis (Cat Flea)
A test container was filled with 10 adults of Ctenocephalides felis. A glass cylinder was closed on one end with parafilm and placed on top of the test container. The test compound solution was then pipetted into bovine blood and added to the glass cylinder. The treated Ctenocephalides felis were held in this artificial dog test (blood 37° C., 40-60% relative humidity; Ctenocephalides felis 20-22° C., 40-60% relative humidity) and assessment performed at 24 and 48 hours after application.
Active compounds gave at least 90% control of Ctenocephalides felis at a test concentration of 5 ppm or less.
Method B: Diabrotica Undecimpunctata (Southern Corn Rootworm) Screen
Two days before application, seeds of maize were soaked in water under warm conditions to elicit fast germination. One day before application, eggs of Diabrotica undecimpunctata were transferred to one half of a Japanese filter paper placed in a plastic petri dish. Afterwards, a sprouted maize seed was placed on a moistened pad beside the filter paper. Three drops of 200 microlitres of test compound solution were carefully pipetted onto the egg. The remainder of the solution was placed on the maize and then the Petri dish was closed. The treated eggs in the Petri dishes were held in a climate chamber for 6 days. The compound efficacy (percentage of dead eggs and/or larvae in comparison to untreated control) was assessed 6 days after application using a binocular microscope. […]
The leaves of 12 rice plants having a stem length of 8 cm were dipped for 5 seconds into an aqueous solution of the formulated test compound. […] After 6 days storage, the percentage mortality of leafhopper larvae was determined. […]
Solutions of the test compounds were dropped onto filter paper, dried and the filter paper placed into test tubes and infested with 10 adults of Ctenocephalides felis. The treated Ctenocephalides felis were held in a climate chamber (26° C., 80% RH) and the percentage efficacy assessed 24 hours and 48 hours after application in comparison with the untreated control. […]
Solutions of the test compounds were dropped onto filter paper, dried and the filter paper placed into test tubes and infested with 20-30 larvae (L1) of Rhipicephalus sanguineus and the tubes closed with a clip. The treated Rhipicephalus sanguineus were held in a climate chamber (25° C., 90% RH) and the percentage efficacy assessed 24 hours after application in comparison with the untreated control. […]

| SMILES | active in one or more of the above tests |
| --- | --- |
| CNc1c([S+]([O-])C(F)(F)F)c(C(=N)N(C)OCc2c(Cl)cccc2Cl)nn1-c1c(Cl)cc(C(F)(F)F)cc1Cl (stereo not shown) [Compound 4-82, 1-(2,6-Dichloro-4-trifluoromethylphenyl)-3-[N-(2,6-dichlorobenzyloxy)-N-methyl-2-amidino]-5-methylamino-4-trifluoromethylsulfinylpyrazole] | active |
| CNc1c([S+]([O-])C(F)(F)F)c(C(=N)N(C)OCc2ccc(C(F)(F)F)cc2)nn1-c1c(Cl)cc(C(F)(F)F)cc1Cl (stereo not shown) [Compound 4-93, 1-(2,6-Dichloro-4-trifluoromethylphenyl)-3-[N-methyl-N-(4-trifluoromethylbenzyloxy)-2-amidino]-5-methylamino-4-trifluoromethylsulfinylpyrazole] | active |
| CNc1c(S(=O)(=O)C(F)(F)F)c(C(=N)N(C)OCc2ccc(C(F)(F)F)cc2)nn1-c1c(Cl)cc(C(F)(F)F)cc1Cl [Compound 4-128, 1-(2,6-Dichloro-4-trifluoromethylphenyl)-3-[N-methyl-N-(4-trifluoromethylbenzyloxy)-2-amidino]-5-methylamino-4-trifluoromethylsulfonylpyrazole] | active |
| CNc1c(S(=O)(=O)C(F)(F)F)c(C(N)=NOCc2ccccc2)nn1-c1c(Cl)cc(C(F)(F)F)cc1Cl [Compound 1-49, 1-(2,6-Dichloro-4-trifluoromethylphenyl)-3-(N-benzyloxy-2-amidino)-5-methylamino-4-trifluoromethylsulfonylpyrazole] | active |
